Data reported in US20180168161A1, “MICROPROPAGATION OF BLACK COHOSH” (North Carolina Agricultural and Technical State University, priority 2016, published 2018).

System: black cohosh plantlets
Assay: Rooting of black cohosh cultures and growth of the micropropagated plantlets in soil
Type: in vivo, Cimicifuga racemosa/Actaea racemose L.
Conditions: rooting 4 weeks, 60% shade
Description: All cultures described herein were transferred onto fresh media every 4 weeks. When indicated as such, the cultures were maintained in a plant tissue culture grade growth chamber under a 16-hour photoperiod (e.g. 16 hours of light per a 24 hour period) with a photo flux density of 37.6±4.8 μmol s^−1m^−2 light per day provided by cool white fluorescent tubes at 23±0.1° C., unless otherwise noted. As employed herein, MS supplemented base medium is at a pH of between about 5.4 and 5.8, supplemented with about 0.7% agar and about 3% sucrose, optionally with one or more plant growth regulators as disclosed herein. The pH of the medium is adjusted with a base, such as 1N KOH, and/or an acid, such as 1N HCl, before the agar is added. The supplemented medium is sterilized by autoclaving at about 120° C. and about 106 kPa for about 20 minutes. A first half of the cultures from Example 1B were moved to fresh MS supplemented base medium containing IBA (1.0 mg/1) and kept in a growth chamber under 16 hours light conditions per day for 4 weeks for rooting of the plantlets. See also the bottom row of FIG. 1, which refers to rooting for 4 weeks. […] A second half of the cultures from Example 1B were moved to fresh MS supplemented base medium containing NAA (0.1 mg/1) and kept in a growth chamber under 16 hours light conditions per day for 4 weeks for rooting of the plantlets. […]

For `O=C(O)CCCc1c[nH]c2ccccc12` [IBA, indole-3-butyric acid], the “plantlet growth in soil after rooting” value (shoots proliferated in BA+NAA (Example 1B)) was “grew vigorously with normal morphology” and the “plantlet growth in soil after rooting” value (shoots proliferated in kinetin+NAA (Example 1C)) was “grew vigorously”.
